Data from patent US9206219B2, “17-hydroxy-17-pentafluorethyl-estra-4,9(10)-dien-11-aryl derivatives, methods for the production thereof and the use thereof for treating diseases” (Bayer Intellectual Property GmbH, priority 2009, dated 2015).

Tests used:
[1] = target: T1, human progesterone receptor A (Homo sapiens, UniProt P06401); assay: Progesterone receptor-antagonistic action in stably transfected SK-N-MC cells, MMTV-LUC reporter (PR-A); type: cell-based; details: antagonistic potency vs 0.1 nmol/l promegestone, 24 hours
T1 construct: expressed in transfected cells; host or cells: SK-N-MC human neuroblastoma cells, stably transfected with pRChPR-A-neo and pMMTV-LUC
T1 sequence (P06401 1-769 isoform P06401-2): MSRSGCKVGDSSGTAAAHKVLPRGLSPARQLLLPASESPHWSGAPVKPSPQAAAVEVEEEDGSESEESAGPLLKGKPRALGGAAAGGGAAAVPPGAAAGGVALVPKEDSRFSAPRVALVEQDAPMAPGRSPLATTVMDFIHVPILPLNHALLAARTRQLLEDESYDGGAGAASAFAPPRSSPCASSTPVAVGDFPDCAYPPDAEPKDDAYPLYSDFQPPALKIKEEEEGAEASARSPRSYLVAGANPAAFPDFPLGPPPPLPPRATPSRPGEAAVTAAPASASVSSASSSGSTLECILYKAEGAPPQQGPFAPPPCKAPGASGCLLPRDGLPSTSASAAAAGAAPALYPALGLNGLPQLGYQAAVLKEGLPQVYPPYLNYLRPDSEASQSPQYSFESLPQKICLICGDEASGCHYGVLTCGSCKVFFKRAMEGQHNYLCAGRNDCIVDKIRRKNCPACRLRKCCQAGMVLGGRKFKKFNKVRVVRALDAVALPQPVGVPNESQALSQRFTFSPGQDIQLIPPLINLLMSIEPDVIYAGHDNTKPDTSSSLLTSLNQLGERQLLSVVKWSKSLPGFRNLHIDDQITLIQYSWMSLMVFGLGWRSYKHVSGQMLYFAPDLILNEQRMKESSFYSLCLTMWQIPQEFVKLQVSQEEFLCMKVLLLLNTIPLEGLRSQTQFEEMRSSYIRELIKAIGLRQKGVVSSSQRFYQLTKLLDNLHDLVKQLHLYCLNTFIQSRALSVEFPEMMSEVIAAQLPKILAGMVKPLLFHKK
Method: (§1) Progesterone Receptor-Antagonistic Action in Stable Transfectants of Human Neuroblastoma Cells (SK-N-MC Cells) with the Human Progesterone A or Progesterone B Receptor and an MN-LUC Reporter Construct
(§2) SK-N-MC cells (human neuroblastoma cells) which have been stably transfected with plasmids expressing the human progesterone receptor B (pRChPR-B-neo) or the human progesterone receptor A (pRChPR-A-neo) and a reporter construct (pMMTV-LUC) were incubated for 24 hours either in the absence (negative control) or in the presence of ascending amounts of the particular test compound (0.01 nmol/l, 0.1 nmol/l, 1 nmol/l, 10 nmol/l, 100 nmol/l and […]), in order to determine the agonistic efficacy. As a positive control of the reporter gene induction, the cells were treated with the synthetic gestagen promegestone (0.01 nmol/l, 0.1 nmol/l, 1 nmol/l, 10 nmol/l, 100 nmol/l and […]). To determine the antagonistic activity, the cells were treated with 0.1 nmol/l promegestone and additionally with ascending amounts of the particular test compound (0.01 nmol/l, 0.1 nmol/l, 1 nmol/l, 10 nmol/l, 100 nmol/l and […]). The activity of the reporter gene LUC (LUC=luciferase) was determined in the cell lysates and measured as RLU (relative light units). All measurements are reported as % efficacy and as EC50 and IC50 concentrations.

[2] = target: T2, human progesterone receptor B (Homo sapiens, UniProt P06401); assay: Progesterone receptor-antagonistic action in stably transfected SK-N-MC cells, MMTV-LUC reporter (PR-B); type: cell-based; details: antagonistic potency vs 0.1 nmol/l promegestone, 24 hours
T2 construct: expressed in transfected cells; host or cells: SK-N-MC human neuroblastoma cells, stably transfected with pRChPR-B-neo and pMMTV-LUC
T2 sequence (P06401 1-933): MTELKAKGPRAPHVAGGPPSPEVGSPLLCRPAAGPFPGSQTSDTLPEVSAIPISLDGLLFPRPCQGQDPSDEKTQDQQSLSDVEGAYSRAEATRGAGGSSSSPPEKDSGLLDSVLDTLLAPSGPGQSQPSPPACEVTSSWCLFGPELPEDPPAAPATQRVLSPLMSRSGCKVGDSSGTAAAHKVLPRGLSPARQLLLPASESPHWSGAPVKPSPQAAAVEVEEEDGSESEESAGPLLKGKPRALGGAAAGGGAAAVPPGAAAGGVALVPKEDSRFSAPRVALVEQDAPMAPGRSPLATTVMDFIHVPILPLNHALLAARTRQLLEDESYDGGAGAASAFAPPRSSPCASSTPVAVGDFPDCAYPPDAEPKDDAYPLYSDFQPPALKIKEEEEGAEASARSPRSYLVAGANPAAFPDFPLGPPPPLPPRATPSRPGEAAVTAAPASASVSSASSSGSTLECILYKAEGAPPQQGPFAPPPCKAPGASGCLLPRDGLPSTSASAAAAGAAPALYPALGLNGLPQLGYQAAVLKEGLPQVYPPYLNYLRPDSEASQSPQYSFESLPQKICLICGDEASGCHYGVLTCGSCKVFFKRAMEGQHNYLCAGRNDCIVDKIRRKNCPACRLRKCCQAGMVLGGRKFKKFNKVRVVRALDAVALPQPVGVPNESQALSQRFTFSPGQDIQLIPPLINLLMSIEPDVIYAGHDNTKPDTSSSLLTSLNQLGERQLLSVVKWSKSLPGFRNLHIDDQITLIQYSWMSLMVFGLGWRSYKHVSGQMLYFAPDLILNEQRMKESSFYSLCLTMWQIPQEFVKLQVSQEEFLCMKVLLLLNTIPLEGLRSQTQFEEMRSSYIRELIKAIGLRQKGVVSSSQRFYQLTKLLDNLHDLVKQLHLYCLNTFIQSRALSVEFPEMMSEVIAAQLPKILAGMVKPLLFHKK
Method: as §1, §2

Row | Structure (SMILES) | IC50 [1] [nM] | IC50 [2] [nM]
1 | CC(C)(C)c1ccc(NC(=O)NCc2ccc([C@H]3C[C@@]4(C)[C@@H](CC[C@@]4(O)C(F)(F)C(F)(F)F)[C@@H]4CCC5=CC(=O)CCC5=C43)cc2)cc1 [Example 35, 1-(4-tert-butylphenyl)-3-[4-((8S,11R,13S,14S,17S)-17-hydroxy-13-methyl-3-oxo-17-pentafluoroethyl-2,3,6,7,8,11,12,13,14,15,16,17-dodecahydro-1H-cyclopenta[a]phenanthren-11-yl)benzyl]urea] | 0.3 | 0.6
2 | CC(C)NC(=O)OCc1ccc([C@H]2C[C@@]3(C)[C@@H](CC[C@@]3(O)C(F)(F)C(F)(F)F)[C@@H]3CCC4=CC(=O)CCC4=C32)cc1 [Example 42, isopropylcarbamic acid 4-((8S,11R,13S,14S,17S)-17-hydroxy-13-methyl-3-oxo-17-pentafluoroethyl-2,3,6,7,8,11,12,13,14,15,16,17-dodecahydro-1H-cyclopenta[a]phenanthren-11-yl)benzyl ester] | 0.1 | 0.2
3 | Cc1ccc(NC(=O)OCc2ccc([C@H]3C[C@@]4(C)[C@@H](CC[C@@]4(O)C(F)(F)C(F)(F)F)[C@@H]4CCC5=CC(=O)CCC5=C43)cc2)cc1 [Example 48, (4-methylphenyl)carbamic acid 4-((8S,11R,13S,14S,17S)-17-hydroxy-13-methyl-3-oxo-17-pentafluoroethyl-2,3,6,7,8,11,12,13,14,15,16,17-dodecahydro-1H-cyclopenta[a]phenanthren-11-yl)benzyl ester] | 0.07 | 0.2
4 | C[C@]12C[C@H](c3ccc(C4CC4)cc3)C3=C4CCC(=O)C=C4CC[C@H]3[C@@H]1CC[C@@]2(O)C(F)(F)C(F)(F)F [Example 1, (8S,11R,13S,14S,17S)-11-(4-cyclopropylphenyl)-17-hydroxy-13-methyl-17-pentafluoroethyl-1,2,6,7,8,11,12,13,14,15,16,17-dodecahydrocyclopenta[a]phenanthren-3-one] | < 0.001 | 0.004
5 | C[C@]12C[C@H](c3ccc(CNC(=O)c4cccnc4)cc3)C3=C4CCC(=O)C=C4CC[C@H]3[C@@H]1CC[C@@]2(O)C(F)(F)C(F)(F)F [Example 54, N-[4-((8S,11R,13S,14S,17S)-17-hydroxy-13-methyl-3-oxo-17-pentafluoroethyl-2,3,6,7,8,11,12,13,14,15,16,17-dodecahydro-1H-cyclopenta[a]phenanthren-11-yl)benzyl]nicotinamide] | 0.3 | 0.1
6 | CCOC(=O)CCNC(=O)OCc1ccc([C@H]2C[C@@]3(C)[C@@H](CC[C@@]3(O)C(F)(F)C(F)(F)F)[C@@H]3CCC4=CC(=O)CCC4=C32)cc1 [Example 57, 3-[4-((8S,11R,13S,14S,17S)-17-hydroxy-13-methyl-3-oxo-17-pentafluoroethyl-2,3,6,7,8,11,12,13,14,15,16,17-dodecahydro-1H-cyclopenta[a]phenanthren-11-yl)benzyloxycarbonylamino]propionic acid ethyl ester] | 0.1 | 0.1
7 | C[C@]12C[C@H](c3ccc(COC(=O)NCCC(=O)O)cc3)C3=C4CCC(=O)C=C4CC[C@H]3[C@@H]1CC[C@@]2(O)C(F)(F)C(F)(F)F [Example 55, 3-[4-((8S,11R,13S,14S,17S)-17-hydroxy-13-methyl-3-oxo-17-pentafluoroethyl-2,3,6,7,8,11,12,13,14,15,16,17-dodecahydro-1H-cyclopenta[a]phenanthren-11-yl)benzyloxycarbonylamino]propionic acid] | 8 | 10
8 | CCOC(=O)CNC(=O)NCc1ccc([C@H]2C[C@@]3(C)[C@@H](CC[C@@]3(O)C(F)(F)C(F)(F)F)[C@@H]3CCC4=CC(=O)CCC4=C32)cc1 [Example 21, {3-[4-((8S,11R,13S,14S,17S)-17-hydroxy-13-methyl-3-oxo-17-pentafluoroethyl-2,3,6,7,8,11,12,13,14,15,16,17-dodecahydro-1H-cyclopenta[a]phenanthren-11-yl)benzyl]ureido}acetic acid ethyl ester] | 1.2 | 2.4
9 | C[C@]12C[C@H](c3ccc(CNC(=O)Nc4ccc(F)cc4)cc3)C3=C4CCC(=O)C=C4CC[C@H]3[C@@H]1CC[C@@]2(O)C(F)(F)C(F)(F)F [Example 33, 1-(4-fluorophenyl)-3-[4-((8S,11R,13S,14S,17S)-17-hydroxy-13-methyl-3-oxo-17-pentafluoroethyl-2,3,6,7,8,11,12,13,14,15,16,17-dodecahydro-1H-cyclopenta[a]phenanthren-11-yl)benzyl]urea] | 0.8 | 0.8
10 | C[C@]12C[C@H](c3ccc(COC(=O)Nc4ccccc4)cc3)C3=C4CCC(=O)C=C4CC[C@H]3[C@@H]1CC[C@@]2(O)C(F)(F)C(F)(F)F [Example 46, phenylcarbamic acid 4-((8S,11R,13S,14S,17S)-17-hydroxy-13-methyl-3-oxo-17-pentafluoroethyl-2,3,6,7,8,11,12,13,14,15,16,17-dodecahydro-1H-cyclopenta[a]phenanthren-11-yl)benzyl ester] | 0.01 | 0.01
11 | C[C@]12C[C@H](c3ccc([C@@H]4CC4CO)cc3)C3=C4CCC(=O)C=C4CCC3C1CC[C@@]2(O)C(F)(F)C(F)(F)F (single isomer, unassigned) [Example 6A] | 0.1 | 0.1
12 | C[C@]12C[C@H](c3ccc(C(CO)CO)cc3)C3=C4CCC(=O)C=C4CC[C@H]3[C@@H]1CC[C@@]2(O)C(F)(F)C(F)(F)F [Example 16, (8S,11R,13S,14S,17S)-17-hydroxy-11-[4-(2-hydroxy-1-hydroxymethylethyl)phenyl]-13-methyl-17-pentafluoroethyl-1,2,6,7,8,11,12,13,14,15,16,17-dodecahydrocyclopenta[a]phenanthren-3-one] | 0.8 | 1
13 | C[C@]12C[C@H](c3ccc(CN=[N+]=[N-])cc3)C3=C4CCC(=O)C=C4CC[C@H]3[C@@H]1CC[C@@]2(O)C(F)(F)C(F)(F)F [Example 28, (8S,11R,13S,14S,17S)-11-(4-azidomethylphenyl)-17-hydroxy-13-methyl-17-pentafluoroethyl-1,2,6,7,8,11,12,13,14,15,16,17-dodecahydrocyclopenta[a]phenanthren-3-one] | 0.01 | 0.08
